Results from ChEMBL document CHEMBL1201862, “PubChem BioAssay data set” (2004).
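The compound was tested at five concentrations on cells cultured in 96-well plates, with a 48-hour exposure period. GI50 = concentration required for 50% inhibition of growth.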 Calls of active or inactive are those of the source. Cut-off read from the data, not from the text of the source: active = GI50 up to about 1.1 µM and inactive = higher.

Tests used:
Experiment in all cases: inhibition of tumour cell growth, NCI panel, 48 h
[1] = test system: SF-268
[2] = test system: NCI-H460
[3] = test system: DU-145
[4] = test system: HOP-92
[5] = test system: CCRF-CEM
[6] = test system: SW-620
[7] = test system: U-251
[8] = test system: Malme-3M
[9] = test system: UO-31
[10] = test system: MDA-MB-231
[11] = test system: NCI-H522
[12] = test system: MOLT-4
[13] = test system: SR
[14] = test system: MCF7
[15] = test system: HL-60
[16] = test system: SNB-75
[17] = test system: SN12C
[18] = test system: SF-295
[19] = test system: SF-539

Measured: GI50

Cc1ccc2c(n1)C(=O)c1cc(C)c(C)cc1C2=O
inactive: [1] 49.8 µM | [2] 10.6 µM | [3] > 100 µM | [4] 43.1 µM | [5] > 100 µM | [6] 73.6 µM | [7] 27.4 µM | [8] 43.1 µM | [9] 57.8 µM | [10] 45.6 µM | [11] 20.6 µM | [12] > 100 µM | [13] 30.2 µM | [14] 67 µM | [15] 36 µM | [16] 27.5 µM | [17] 56.9 µM | [18] > 100 µM | [19] > 100 µM

O=C(C=P(c1ccccc1)(c1ccccc1)c1ccccc1)c1ccc(-c2cccc([N+](=O)[O-])c2)s1
inactive: [1] > 100 µM | [2] 39.4 µM | [3] > 100 µM | [4] 16.4 µM | [5] 30.6 µM | [6] 38.2 µM | [7] 75.2 µM | [8] 81.7 µM | [9] 48.2 µM | [10] > 100 µM | [11] 23.7 µM | [12] 20.6 µM | [13] 42.5 µM | [14] 29.4 µM | [15] 26 µM | [16] 24 µM | [17] 68.7 µM | [18] 47.4 µM | [19] 63.4 µM

Nc1ccc(C2SCC(=O)N2NS(=O)(=O)c2cccc(C(=O)O)c2)cc1 (stereo not given)
inactive: [1] > 100 µM | [2] > 100 µM | [3] > 100 µM | [4] > 100 µM | [5] 63.8 µM | [6] > 100 µM | [7] > 100 µM | [8] 18.1 µM | [9] > 100 µM | [10] > 100 µM | [11] > 100 µM | [12] > 100 µM | [13] 12.1 µM | [14] > 100 µM | [15] > 100 µM | [16] > 100 µM | [17] > 100 µM | [18] > 100 µM | [19] > 100 µM

CC(=O)Nc1ccc(-c2nc3cc(Cl)ccc3o2)cc1
inactive: [1] > 50 µM | [2] > 50 µM | [3] > 50 µM | [4] > 50 µM | [5] > 50 µM | [6] > 50 µM | [7] 45.7 µM | [8] > 50 µM | [9] > 50 µM | [10] > 50 µM | [11] > 50 µM | [12] > 50 µM | [13] > 50 µM | [14] > 50 µM | [15] 40.9 µM | [16] 32.5 µM | [17] > 50 µM | [18] > 50 µM | [19] > 50 µM

CN(C)Cc1cc(C(=O)/C=C/c2ccc(Br)cc2)cc(CN(C)C)c1O
inactive: [1] 18.2 µM | [2] 7.16 µM | [3] 12.6 µM | [4] 3.33 µM | [5] 3.24 µM | [6] 4.25 µM | [7] 12.9 µM | [8] 16.6 µM | [9] 1.82 µM | [10] 3.21 µM | [11] 3.93 µM | [12] 3.91 µM | [13] 5.85 µM | [14] 6.61 µM | [15] 3.4 µM | [16] 11.3 µM | [17] 2.84 µM | [18] 5.58 µM | [19] 14.3 µM
